# Assay results reported in US9540358B2, “Tricyclic compounds as anticancer agents” (ICAHN SCHOOL OF MEDICINE AT MOUNT SINAI, priority 2011, dated 2017).
# Test system: H1650 lung cancer cells
# Assay: Cell viability assay (MTT, IC50 determination)
# Assay type: cell-based
# Conditions: 48 hours after drug treatment, MTT
# Method: 89(22): p. […] H1650 lung cancer cells were plated at 150,000 cells per well in a 12 well plate. Twenty-four hours after plating, cells were treated as described with increasing concentrations of drug and control. Forty-eight hours after drug treatment, cells were treated with 100 μL of 3-(4,5-Dimethylthiazol-2-yl)-2,5-diphenyltetrazolium bromide (MTT) and incubated for 2 hours at 37 C. The MTT solution was subsequently replaced with 300 μL of n-propyl alcohol and re-aliquoted to a 96 well plates. Spectrophotometric analysis of each solution was performed using a 96 well plate reader at 600 nm in triplicate.
IC50 [µM],IC50 (Cell Viability Data),Structure (SMILES)
30,,"COC(=O)NCCCN1c2ccccc2CCc2ccc(Cl)cc21 [Example 9, Methyl (3-(3-chloro-10,11-dihydro-5H-dibenzo[b,f]azepin-5-yl)propyl)carbamate]"
,INACTIVE,"COc1ccc(S(=O)(=O)NCCCN2c3ccccc3Sc3ccc(Cl)cc32)cc1 [Example 11, N-(3-(2-chloro-10H-phenothiazin-10-yl)propyl)-4-methoxybenzenesulfonamide]"
,INACTIVE,"O=S(=O)(NCCCN1c2ccccc2CCc2ccc(Cl)cc21)c1ccc(Cl)cc1F [Example 28, N-(3-(3-chloro-10,11-dihydro-5H-dibenzo[b,f]azepin-5-yl)propyl)-4-chloro-2-fluorobenzenesulfonamide]"

# Same assay, conditions: Homo sapiens, NCI-H1650, 48 hours after drug treatment, MTT
row,Structure (SMILES),IC50 [µM]
1,"Cc1ccc(S(=O)(=O)NCCCN2c3ccccc3Sc3ccc(Cl)cc32)cc1 [Example 3, N-(3-(2-chloro-10H-phenothiazin-10-yl)propyl)-4-methylbenzenesulfonamide]",20
2,"COC(=O)NCCCN1c2ccccc2Sc2ccc(Cl)cc21 [Example 4, Methyl (3-(2-chloro-10H-phenothiazin-10-yl)propyl)carbamate]",10
3,"Cc1ccc(S(=O)(=O)NCCCN2c3ccccc3CCc3ccc(Cl)cc32)cc1 [Example 8, N-(3-(3-chloro-10,11-dihydro-5H-dibenzo[b,f]azepin-5-yl)propyl)-4-methylbenzenesulfonamide]",20
4,"CN(C)C(=O)NCCCN1c2ccccc2CCc2ccc(Cl)cc21 [Example 10, 3-(3-(3-chloro-10,11-dihydro-5H-dibenzo[b,f]azepin-5-yl)propyl)-1,1-dimethylurea]",20
5,O=S(=O)(NCCCN1c2ccccc2Sc2ccc(Cl)cc21)c1cc(F)cc(F)c1 [Example 13],18
6,"N#Cc1ccc(S(=O)(=O)NCCCN2c3ccccc3Sc3ccc(Cl)cc32)cc1 [Example 14, N-(3-(2-chloro-10H-phenothiazin-10-yl)propyl)-4-cyanobenzenesulfonamide]",40
7,"O=S(=O)(NCCCN1c2ccccc2Sc2ccc(Cl)cc21)c1ccc(Cl)cc1 [Example 15, 4-Chloro-N-(3-(2-chloro-10H-phenothiazin-10-yl)propyl)benzenesulfonamide]",20
8,"CN(C)C(=O)NCCCN1c2ccccc2Sc2ccc(Cl)cc21 [Example 17, 3-(3-(2-Chloro-10H-phenothiazin-10-yl)propyl)-1,1-dimethylurea]",> 50
9,"NCCCN1c2ccccc2CCc2ccccc21 [Example 19, 3-(10,11-dihydro-5H-dibenzo[b,f]azepin-5-yl)propan-1-aminium chloride]",24.4
10,"O=S(=O)(NCCCN1c2ccccc2CCc2ccccc21)c1ccc(Cl)cc1 [Example 35, 4-chloro-N-(3-(10,11-dihydro-5H-dibenzo[b,f]azepin-5-yl)propyl)benzenesulfonamide]",~20
11,"O=S(=O)(NCCCN1c2ccccc2CCc2ccccc21)c1ccc(C(F)(F)F)cc1 [Example 36, N-(3-(10,11-dihydro-5H-dibenzo[b,f]azepin-5-yl)propyl)-4-(trifluoromethyl)benzenesulfonamide]",~15

# Further lines, results first:
row,IC50 [µM],Structure (SMILES)
1,> 40,"O=S(=O)(NCCCN1c2ccccc2CCc2ccc(Cl)cc21)c1ccc(F)cc1 [Example 20, N-(3-(3-chloro-10,11-dihydro-5H-dibenzo[b,f]azepin-5-yl)propyl)-4-fluorobenzenesulfonamide]"
2,15.3,"O=S(=O)(NCCCN1c2ccccc2CCc2ccc(Cl)cc21)c1ccc(C(F)(F)F)cc1 [Example 21, N-(3-(3-chloro-10,11-dihydro-5H-dibenzo[b,f]azepin-5-yl)propyl)-4-(trifluoromethyl)benzenesulfonamide]"
3,11.1,"N#Cc1ccc(S(=O)(=O)NCCCN2c3ccccc3CCc3ccc(Cl)cc32)cc1 [Example 22, N-(3-(3-chloro-10,11-dihydro-5H-dibenzo[b,f]azepin-5-yl)propyl)-4-cyanobenzenesulfonamide]"
4,~25,"O=S(=O)(NCCCN1c2ccccc2CCc2ccc(Cl)cc21)c1ccc(Cl)cc1 [Example 23, 4-Chloro-N-(3-(3-chloro-10,11-dihydro-5H-dibenzo[b,f]azepin-5-yl)propyl)benzenesulfonamide]"
5,15.1,"CS(=O)(=O)c1ccc(S(=O)(=O)NCCCN2c3ccccc3CCc3ccc(Cl)cc32)cc1 [Example 24, N-(3-(3-chloro-10,11-dihydro-5H-dibenzo[b,f]azepin-5-yl)propyl)-4-(methylsulfonyl)benzenesulfonamide]"
6,< 40,"COc1ccc(S(=O)(=O)NCCCN2c3ccccc3CCc3ccc(Cl)cc32)cc1 [Example 25, N-(3-(3-chloro-10,11-dihydro-5H-dibenzo[b,f]azepin-5-yl)propyl)-4-methoxybenzenesulfonamide]"
7,> 40,"O=S(=O)(NCCCN1c2ccccc2CCc2ccc(Cl)cc21)c1ccc(Cl)cc1Cl [Example 26, 2,4-dichloro-N-(3-(3-chloro-10,11-dihydro-5H-dibenzo[b,f]azepin-5-yl)propyl)benzenesulfonamide]"
8,~25,"O=S(=O)(NCCCN1c2ccccc2CCc2ccc(Cl)cc21)c1ccc(Cl)c(Cl)c1 [Example 29, 3,4-dichloro-N-(3-(3-chloro-10,11-dihydro-5H-dibenzo[b,f]azepin-5-yl)propyl)benzenesulfonamide]"
9,~20,"O=S(=O)(NCCN1c2ccccc2CCc2ccc(Cl)cc21)c1ccc(Cl)cc1 [Example 33, 4-chloro-N-(2-(3-chloro-10,11-dihydro-5H-dibenzo[b,f]azepin-5-yl)ethyl)benzenesulfonamide]"
10,~20,"O=S(=O)(NCCN1c2ccccc2CCc2ccc(Cl)cc21)c1ccc(C(F)(F)F)cc1 [Example 34, N-(2-(3-chloro-10,11-dihydro-5H-dibenzo[b,f]azepin-5-yl)ethyl)-4-(trifluoromethyl)benzenesulfonamide]"
11,~25,"O=S(=O)(NCCN1c2ccccc2CCc2ccc(Cl)cc21)c1ccc(OC(F)(F)F)cc1 [Example 37, N-(2-(3-chloro-10,11-dihydro-5H-dibenzo[b,f]azepin-5-yl)ethyl)-4-(trifluoromethoxy)benzenesulfonamide]"
12,~10,"O=S(=O)(NCCCN1c2ccccc2CCc2cc(Cl)ccc21)c1ccc(C(F)(F)F)cc1 [Example 38, N-(3-(2-chloro-10,11-dihydro-5H-dibenzo[b,f]azepin-5-yl)propyl)-4-(trifluoromethyl)benzenesulfonamide]"
13,~10,"O=S(=O)(NCCCN1c2ccccc2CCc2ccc(Cl)cc21)c1cccc(C(F)(F)F)c1 [Example 39, N-(3-(3-chloro-10,11-dihydro-5H-dibenzo[b,f]azepin-5-yl)propyl)-3-trifluoromethylbenzenesulfonamide]"
14,~15,"O=[N+]([O-])c1ccc(S(=O)(=O)NCCCN2c3ccccc3CCc3ccc(Cl)cc32)cc1 [Example 40, N-(3-(3-chloro-10,11-dihydro-5H-dibenzo[b,f]azepin-5-yl)propyl)-4-nitrobenzenesulfonamide]"
15,~25,"O=S(=O)(NCCN1c2ccccc2Sc2ccc(Cl)cc21)c1ccc(C(F)(F)F)cc1 [Example 41, 4-trifluoromethyl-N-(2-(2-chloro-10H-phenothiazin-10-yl)ethyl)benzenesulfonamide]"
16,~25,"O=S(=O)(NCCN1c2ccccc2Sc2ccc(Cl)cc21)c1ccc(OC(F)(F)F)cc1 [Example 42, 4-trifluoromethoxy-N-(2-(2-chloro-10H-phenothiazin-10-yl)ethyl)benzenesulfonamide]"
